Results as given in US20170146519A1, “STING AGONISTS AND METHODS OF SELECTING STING AGONISTS” (priority 2015, published 2017).

Experiments:
[1] = test system: IRF3 S386 phosphorylation; format: cell-based, human
[2] = test system: IRF3/IFN-dependent genes in THF; format: cell-based, human
[3] = test system: human peripheral blood mononuclear cells (PBMCs); format: cell-based
[4] = test system: innate antiviral genes IFNβ, ISG15, IFIT2, Viperin; assay: qPCR of innate antiviral genes in RAW264.7 cells; format: cell-based, mouse; conditions: RAW264.7, 8 h, range of DMXAA concentrations
Text: (§1) Multiple molecular analogs of G10 were thus constructed in an attempt to identify one that is active in both human and mouse cells. While this allowed characterization of essential and nonessential moieties within the molecule (FIG. 17), no derivatives were identified that were active across species. […] As such, the compound has been explored for multiple immunotherapeutic uses including anti-angiogenesis (Cao Z et al, Cancer Res 61, 1517-1521 (2001); incorporated by reference herein), vaccine adjuvanticity (Tang C K et al, PLoS ONE 8, e60038 (2013); incorporated by reference herein), anti-tumor immunology and antiviral activity (Guo F et al, Antimicrob Agents Chemother 59, 1273-1281 (2015); incorporated by reference herein). Patterns of DMXAA-stimulated innate immune activation in murine cells were then explored to evaluate their resemblance with those induced by G10 in human cells. FIG. 11A illustrates that DMXAA-induced IRF3 phosphorylation in RAW264.7 macrophage-like cells is detectable by 1 h post-treatment. […]
Total RNA was isolated from cells and DNased using a DNA Free RNA Isolation kit according to the manufacturer's protocol (Zymo Research) and quantified by UV spectrometry. […]

IRF3 phosphorylation = assay: Immunoblot of IRF3 phosphorylation in RAW264.7 cells; format: cell-based, mouse; conditions: RAW264.7, 100 μM DMXAA
Text: as §1

[5] = test system: Chikungunya virus (CHIKV); assay: Mouse model of CHIKV infection, serum viral titers; format: in vivo, C57Bl/6J mice
THP-1 cells = format: cell-based, human
[6] = test system: NF-κB-dependent LUC in THF reporter cells; format: cell-based, human
[7] = test system: secreted bioactive type I or III interferon
[8] = test system: NF-κB-dependent genes (IL8, IL1β, MIP1α) in THF; format: cell-based, human
Sindbis virus (SINV) = format: cell-based; conditions: 48 h
Vaccinia Virus (VACV) = format: cell-based
[9] = test system: human umbilical microvascular endothelial cells; format: cell-based
human STING-CTD = target: T1, human STING-CTD (Homo sapiens, UniProt Q86WV6); assay: Thermal shift assay (differential scanning fluorimetry), human STING-CTD; format: binding; conditions: 1 μg recombinant protein, SYPRO Orange, various concentrations
T1 construct: human STING-C-terminal domain (CTD; AA 137-379); 6xHIS; made in house; host or cells: E. coli BL21 (DE3)pLysS
T1 sequence (Q86WV6 137-379): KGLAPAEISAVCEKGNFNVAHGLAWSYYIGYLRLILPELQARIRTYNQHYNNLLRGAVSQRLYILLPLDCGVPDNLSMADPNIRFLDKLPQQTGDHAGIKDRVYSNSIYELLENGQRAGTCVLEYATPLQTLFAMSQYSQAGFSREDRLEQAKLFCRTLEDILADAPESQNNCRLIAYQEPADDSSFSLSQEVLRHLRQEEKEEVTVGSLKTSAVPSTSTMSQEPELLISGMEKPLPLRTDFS

Mx2 and ISG56 proteins = format: cell-based, human
West Nile Virus (WNV) = format: cell-based
[10] = test system: Venezuelan Equine Encephalitis Virus (VEEV); assay: microbe, parasite or virus in culture; format: cell-based
[11] = test system: Chikungunya virus (CHIKV); assay: microbe, parasite or virus in culture; format: cell-based
mouse STING-CTD = target: T2, mouse STING-CTD (Mus musculus, UniProt Q3TBT3); assay: Thermal shift assay (differential scanning fluorimetry), mouse STING-CTD; format: binding; conditions: 1 μg recombinant protein, SYPRO Orange, various concentrations
T2 construct: mouse STING-CTD (AA 137-378); 6xHIS; made in house; host or cells: E. coli BL21 (DE3)pLysS
T2 sequence (Q3TBT3 137-378): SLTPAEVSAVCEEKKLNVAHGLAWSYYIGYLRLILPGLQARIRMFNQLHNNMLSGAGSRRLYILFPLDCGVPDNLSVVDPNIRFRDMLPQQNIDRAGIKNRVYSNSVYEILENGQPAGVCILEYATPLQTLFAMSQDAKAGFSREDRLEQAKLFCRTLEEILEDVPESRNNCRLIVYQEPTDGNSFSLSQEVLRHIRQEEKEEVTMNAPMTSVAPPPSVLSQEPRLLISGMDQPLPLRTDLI

[12] = test system: IRF3/IFN-dependent luciferase (LUC) in THF-ISRE; format: cell-based, human

Nc1nc2c(ncn2[C@@H]2O[C@@H]3COP(=O)(O)O[C@H]4[C@@H](O)[C@H](n5cnc6c(N)ncnc65)O[C@@H]4COP(=O)(O)O[C@@H]2[C@@H]3O)c(=O)[nH]1 [2′3′-cGAMP, reference compound]
IRF3 S386 phosphorylation in cells lacking STING [1]: absence of IRF3 S386 phosphorylation
IRF3 phosphorylation in cells lacking IPS-1 [1]: remains intact
time post exposure at which phosphorylation of IRF3 S386 is detectable [1]: 1 h
mRNA synthesis of IFIT1, IFIT2, ISG15, Viperin, OAS, Mx2 over a concentration range, compared with G10 [2]: stronger mRNA synthesis
expression of IFIT1, IFIT2, IFNβ, ISG15, OAS and Viperin mRNA in PBMC [3]: similarly capable of activating transcription of these genes

Cc1ccc2c(=O)c3cccc(CC(=O)O)c3oc2c1C [DMXAA, 5,6-dimethylxanthenone-4-acetic acid]
transcription of IFNβ, ISG15, IFIT2 and Viperin [4]: dose-dependent transcription
time post-treatment at which IRF3 phosphorylation is detectable (IRF3 phosphorylation): ≤ 1 h
serum associated CHIKV at 72 h post infection ([5]; 25 mg/kg intraperitoneally 3 h pre-infection, 1000 PFU CHIKV): undetectable by plaque assay
serum associated CHIKV at 72 h post infection ([5]; 25 mg/kg intraperitoneally 6 h post infection): still undetectable
serum associated CHIKV at 72 h post infection ([5]; mouse, in vivo): diminished relative to DMSO-treated animals but this difference was not statistically significant

O=C(NCc1ccco1)c1ccc2c(c1)N(Cc1c(F)cccc1Cl)C(=O)CS2 [G10, 4-(2-chloro-6-fluorobenzyl)-N-(furan-2-ylmethyl)-3-oxo-3,4-dihydro-2H-benzo[b][1,4]thiazine-6-carboxamide]
IRF3 activation or IRF3-dependent gene expression in THP-1 (THP-1 cells): does not induce IRF3 activation or IRF3-dependent gene expression
NF-κB-dependent LUC transcription [6]: no G10-associated stimulation of NF-κB-dependent transcription was detected
IFN secretion by cells lacking IPS-1 [7]: significantly diminished relative to wild type cells
IFN secretion by cells lacking STING [7]: failed to secrete IFN
IFN secretion by wild type THF cells [7]: IFN secretion was detected
mRNA synthesis of endogenous NF-κB-dependent genes (IL8, IL1β, MIP1α) [8]: failed to stimulate mRNA synthesis
cytotoxicity (THF cells): low cytotoxicity even at high concentrations
SINV replication in cells lacking IPS-1 (Sindbis virus (SINV)): diminishes replication of all three virus types by multiple logs
reduction of VACV growth (Vaccinia Virus (VACV)): by approximately one log
IRF3 S386 phosphorylation in cells lacking STING [1]: elimination of G10-induced IRF3 S386 phosphorylation
IRF3 phosphorylation in cells lacking IPS-1 [1]: functional
phosphorylation of IRF3 S386 [1]: stimulates phosphorylation of IRF3
time post exposure at which phosphorylation of IRF3 S386 is detectable [1]: 30 m
expression of IRF3-, IFN- and NF-κB-dependent genes in endothelial cells [9]: responded to G10 exposure by expressing IRF3-, IFN-, and NF-κB-dependent genes
IFNβ and IFNλ1 mRNA transcription [2]: leads to transcription of both IFNβ and IFNλ1 mRNAs
ISG54, ISG15 and Viperin mRNA in cells lacking IPS-1 [2]: highly transcribed
ISG54, ISG15 and Viperin mRNA in cells lacking STING [2]: remain comparatively unstimulated
Mx2 and OAS mRNA induction [2]: substantial induction
mRNA of IRF3/IFN-dependent genes (ISG54, ISG56, ISG15, Viperin) [2]: led to transcription of cellular genes triggered by IRF3/IFN-dependent signaling
thermal stability of purified human STING-CTD (human STING-CTD): did not increase the protein's thermal stability
synthesis of Mx2 and ISG56 proteins (Mx2 and ISG56 proteins): capable of triggering synthesis of Mx2 and ISG56 proteins
expression of IFIT1, IFIT2, IFNβ, ISG15, OAS and Viperin mRNA in PBMC [3]: to degrees that were proportional to compound concentration
transcription of NF-κB-dependent genes MIP1α and IL1β in PBMC [3]: also transcriptionally induced
reduction of WNV growth (West Nile Virus (WNV)): by less than one log
VEEV replication in cells lacking IRF3 [10]: ability of G10 to block replication of CHIKV and VEEV is lost
VEEV replication in cells lacking IPS-1 ([10]; 24 h): diminishes replication of all three virus types by multiple logs
VEEV replication in cells lacking STING ([10]; 24 h): ability of G10 to block virus replication is absent
IC90 ([10]; Venezuelan equine encephalitis virus, read-out: IC90 VEEV replication): 24.6 µM
CHIKV replication in cells lacking IRF3 [11]: ability of G10 to block replication of CHIKV and VEEV is lost
reduction of CHIKV replication [11]: by over three logs
CHIKV replication in cells lacking IPS-1 ([11]; 48 h): diminishes replication of all three virus types by multiple logs
CHIKV replication in cells lacking STING ([11]; 48 h): ability of G10 to block virus replication is absent
IC90 ([11]; Chikungunya virus, read-out: IC90 CHIKV replication): 8.01 µM
thermal stability of purified mouse STING-CTD (mouse STING-CTD): did not increase the protein's thermal stability
IFN/IRF3-dependent LUC expression [12]: able to induce LUC expression in a dose-dependent manner
IRF3/IFN-dependent LUC expression in cells lacking IRF3 [12]: abrogated
IRF3/IFN-dependent LUC expression in cells lacking STAT1 [12]: induce LUC expression in the absence of STAT1
IRF3/IFN-dependent LUC induction in cells lacking IPS-1 [12]: strong LUC induction
IRF3/IFN-dependent LUC induction in cells lacking STING [12]: fail to activate appreciable LUC
LUC signal in high-throughput screen [12]: third highest signal of all those screened
